Measurements as given in BindingDB's records for PubMed 20126400 (University of Oklahoma, 2010).

How the values were obtained:
Assay in all cases: Ray2010 Assay 74
[1] = target: Sodium-dependent dopamine transporter (Homo sapiens, UniProt Q01959)
Text: (§1) Table S2 shows raw Ki data for the current study combined with data collected from the literature for the ten additional compounds.

[2] = target: T1, Muscarinic acetylcholine receptor M5 (Homo sapiens, UniProt P08912)
T1 sequence (P08912 whole entry): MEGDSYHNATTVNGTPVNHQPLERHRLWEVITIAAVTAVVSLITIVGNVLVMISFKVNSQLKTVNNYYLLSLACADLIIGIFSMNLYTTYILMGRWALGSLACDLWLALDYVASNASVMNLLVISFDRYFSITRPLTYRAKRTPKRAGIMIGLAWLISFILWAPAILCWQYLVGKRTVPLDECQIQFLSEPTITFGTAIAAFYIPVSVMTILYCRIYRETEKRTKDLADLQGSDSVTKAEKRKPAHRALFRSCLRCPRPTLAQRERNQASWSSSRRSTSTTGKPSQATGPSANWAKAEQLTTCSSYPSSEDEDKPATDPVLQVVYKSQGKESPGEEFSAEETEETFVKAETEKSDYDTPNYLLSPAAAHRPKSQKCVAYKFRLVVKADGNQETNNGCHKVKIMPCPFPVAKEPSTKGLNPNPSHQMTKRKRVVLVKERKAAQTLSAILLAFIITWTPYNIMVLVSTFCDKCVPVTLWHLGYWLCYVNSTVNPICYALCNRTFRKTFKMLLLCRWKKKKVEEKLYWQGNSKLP
Text: as §1

[3] = target: Sodium-dependent noradrenaline transporter (Homo sapiens, UniProt P23975)
Text: as §1

D(4) dopamine receptor = target: T2, D(4) dopamine receptor (Homo sapiens, UniProt P21917)
T2 sequence (P21917 whole entry): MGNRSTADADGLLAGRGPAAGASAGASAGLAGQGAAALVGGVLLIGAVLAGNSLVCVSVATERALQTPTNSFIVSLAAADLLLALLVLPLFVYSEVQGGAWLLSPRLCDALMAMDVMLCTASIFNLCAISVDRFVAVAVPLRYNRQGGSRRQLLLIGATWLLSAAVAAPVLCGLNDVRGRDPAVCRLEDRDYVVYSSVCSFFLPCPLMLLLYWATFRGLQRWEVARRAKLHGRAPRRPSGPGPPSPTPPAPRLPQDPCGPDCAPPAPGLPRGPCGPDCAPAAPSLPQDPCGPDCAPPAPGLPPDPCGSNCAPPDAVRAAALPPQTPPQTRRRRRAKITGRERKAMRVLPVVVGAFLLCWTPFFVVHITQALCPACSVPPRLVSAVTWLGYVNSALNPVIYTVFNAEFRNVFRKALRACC
Text: as §1

Histamine H1 receptor = Histamine H1 receptor (Homo sapiens, UniProt P35367)
Text: as §1

[4] = target: 5-hydroxytryptamine receptor 1B (Homo sapiens, UniProt P28222)
Text: as §1

Histamine H2 receptor = Histamine H2 receptor (Homo sapiens, UniProt P25021)
Text: as §1

D(1A) dopamine receptor = D(1A) dopamine receptor (Homo sapiens, UniProt P21728)
Text: as §1

[5] = target: Sodium-dependent serotonin transporter (Homo sapiens, UniProt P31645)
Text: as §1

[6] = target: T3, Alpha-1B adrenergic receptor (Homo sapiens, UniProt P35368)
T3 sequence (P35368 whole entry): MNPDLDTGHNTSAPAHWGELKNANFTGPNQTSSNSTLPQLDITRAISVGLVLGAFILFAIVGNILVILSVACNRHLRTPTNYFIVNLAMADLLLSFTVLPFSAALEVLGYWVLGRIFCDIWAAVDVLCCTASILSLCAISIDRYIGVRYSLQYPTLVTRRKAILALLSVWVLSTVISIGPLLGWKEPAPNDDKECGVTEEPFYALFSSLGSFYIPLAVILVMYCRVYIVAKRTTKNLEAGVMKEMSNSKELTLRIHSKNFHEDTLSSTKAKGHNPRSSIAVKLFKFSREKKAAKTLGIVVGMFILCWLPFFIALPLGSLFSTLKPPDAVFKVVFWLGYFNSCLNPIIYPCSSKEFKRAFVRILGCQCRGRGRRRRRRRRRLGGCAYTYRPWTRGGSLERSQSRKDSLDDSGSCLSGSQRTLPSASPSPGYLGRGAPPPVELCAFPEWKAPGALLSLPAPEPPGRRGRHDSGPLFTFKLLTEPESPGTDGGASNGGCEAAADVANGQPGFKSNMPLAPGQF
Text: as §1

[7] = target: T4, Muscarinic acetylcholine receptor M1 (Homo sapiens, UniProt P11229)
T4 sequence (P11229 whole entry): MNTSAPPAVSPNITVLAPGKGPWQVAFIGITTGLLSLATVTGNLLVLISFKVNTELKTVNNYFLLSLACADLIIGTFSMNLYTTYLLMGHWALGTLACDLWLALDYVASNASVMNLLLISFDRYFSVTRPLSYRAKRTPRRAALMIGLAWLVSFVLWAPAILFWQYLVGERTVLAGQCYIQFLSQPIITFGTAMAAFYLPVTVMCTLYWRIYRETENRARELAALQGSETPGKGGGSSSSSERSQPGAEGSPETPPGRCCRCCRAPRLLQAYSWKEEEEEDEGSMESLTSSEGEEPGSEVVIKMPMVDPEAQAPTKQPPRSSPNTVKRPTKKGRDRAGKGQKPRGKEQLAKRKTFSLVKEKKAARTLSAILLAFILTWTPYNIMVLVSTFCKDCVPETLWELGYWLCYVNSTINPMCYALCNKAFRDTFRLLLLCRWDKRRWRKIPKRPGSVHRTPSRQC
Text: as §1

[8] = target: 5-hydroxytryptamine receptor 5A (Homo sapiens, UniProt P47898)
Text: as §1

[9] = target: 5-hydroxytryptamine receptor 1E (Homo sapiens, UniProt P28566)
Text: as §1

[10] = target: 5-hydroxytryptamine receptor 2A (Homo sapiens, UniProt P28223)
Text: as §1

5-hydroxytryptamine receptor 2A, sequence (P28223 whole entry): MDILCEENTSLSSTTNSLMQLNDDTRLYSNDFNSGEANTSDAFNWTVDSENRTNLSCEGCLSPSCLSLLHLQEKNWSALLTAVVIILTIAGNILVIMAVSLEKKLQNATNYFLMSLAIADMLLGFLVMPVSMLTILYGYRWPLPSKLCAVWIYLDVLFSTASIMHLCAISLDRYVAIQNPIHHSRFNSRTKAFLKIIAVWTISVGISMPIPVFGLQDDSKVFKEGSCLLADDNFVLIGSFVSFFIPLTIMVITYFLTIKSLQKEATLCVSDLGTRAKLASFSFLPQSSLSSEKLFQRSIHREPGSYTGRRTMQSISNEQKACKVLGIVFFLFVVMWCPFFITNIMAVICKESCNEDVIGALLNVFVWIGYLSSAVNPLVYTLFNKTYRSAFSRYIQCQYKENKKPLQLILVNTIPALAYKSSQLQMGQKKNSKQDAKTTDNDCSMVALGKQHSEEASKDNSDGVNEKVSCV
Sodium-dependent serotonin transporter, sequence (P31645 whole entry): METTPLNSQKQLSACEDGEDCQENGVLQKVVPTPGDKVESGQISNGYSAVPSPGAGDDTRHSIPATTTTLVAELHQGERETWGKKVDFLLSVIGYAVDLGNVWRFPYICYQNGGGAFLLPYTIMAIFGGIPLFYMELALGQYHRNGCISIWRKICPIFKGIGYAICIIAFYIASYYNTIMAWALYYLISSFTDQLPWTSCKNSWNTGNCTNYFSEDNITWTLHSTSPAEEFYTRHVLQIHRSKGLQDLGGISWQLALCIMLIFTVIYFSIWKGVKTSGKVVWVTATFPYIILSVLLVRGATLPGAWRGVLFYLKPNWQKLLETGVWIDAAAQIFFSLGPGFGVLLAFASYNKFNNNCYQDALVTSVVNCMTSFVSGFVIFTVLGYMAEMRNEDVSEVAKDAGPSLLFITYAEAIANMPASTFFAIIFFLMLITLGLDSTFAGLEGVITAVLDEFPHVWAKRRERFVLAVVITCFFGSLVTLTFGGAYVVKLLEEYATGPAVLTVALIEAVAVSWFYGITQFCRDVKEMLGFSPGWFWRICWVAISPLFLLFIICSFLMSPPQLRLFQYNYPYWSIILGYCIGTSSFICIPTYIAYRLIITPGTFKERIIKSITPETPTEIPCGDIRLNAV
5-hydroxytryptamine receptor 1B, sequence (P28222 whole entry): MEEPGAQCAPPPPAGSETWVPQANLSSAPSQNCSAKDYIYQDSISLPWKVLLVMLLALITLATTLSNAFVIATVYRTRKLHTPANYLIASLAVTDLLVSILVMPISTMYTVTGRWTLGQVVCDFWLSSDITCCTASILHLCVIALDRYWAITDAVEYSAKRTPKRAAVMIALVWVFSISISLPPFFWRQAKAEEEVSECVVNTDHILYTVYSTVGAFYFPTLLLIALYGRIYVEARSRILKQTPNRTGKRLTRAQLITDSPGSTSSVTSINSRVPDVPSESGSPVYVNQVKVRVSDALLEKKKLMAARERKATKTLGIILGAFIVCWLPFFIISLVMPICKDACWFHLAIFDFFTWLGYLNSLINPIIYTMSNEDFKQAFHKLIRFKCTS
Histamine H2 receptor, sequence (P25021 whole entry): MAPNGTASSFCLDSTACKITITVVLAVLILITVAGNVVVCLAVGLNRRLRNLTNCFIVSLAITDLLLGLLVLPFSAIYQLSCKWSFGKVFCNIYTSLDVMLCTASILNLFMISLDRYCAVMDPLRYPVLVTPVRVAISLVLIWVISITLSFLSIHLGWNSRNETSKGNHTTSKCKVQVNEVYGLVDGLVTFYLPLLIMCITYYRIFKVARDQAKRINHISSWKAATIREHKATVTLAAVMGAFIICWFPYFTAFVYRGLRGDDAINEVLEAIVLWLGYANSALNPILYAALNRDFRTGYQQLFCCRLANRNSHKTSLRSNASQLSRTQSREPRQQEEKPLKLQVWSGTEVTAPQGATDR
5-hydroxytryptamine receptor 1E, sequence (P28566 whole entry): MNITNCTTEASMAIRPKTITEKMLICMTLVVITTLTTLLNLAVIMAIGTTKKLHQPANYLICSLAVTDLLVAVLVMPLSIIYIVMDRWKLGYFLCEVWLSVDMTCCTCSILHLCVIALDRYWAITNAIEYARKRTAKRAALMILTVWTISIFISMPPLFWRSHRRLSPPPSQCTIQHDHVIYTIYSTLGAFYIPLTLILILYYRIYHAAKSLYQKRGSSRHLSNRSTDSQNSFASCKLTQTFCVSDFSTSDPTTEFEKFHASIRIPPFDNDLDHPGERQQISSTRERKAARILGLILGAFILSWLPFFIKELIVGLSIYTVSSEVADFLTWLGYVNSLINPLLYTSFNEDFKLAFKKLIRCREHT
Sodium-dependent noradrenaline transporter, sequence (P23975 whole entry): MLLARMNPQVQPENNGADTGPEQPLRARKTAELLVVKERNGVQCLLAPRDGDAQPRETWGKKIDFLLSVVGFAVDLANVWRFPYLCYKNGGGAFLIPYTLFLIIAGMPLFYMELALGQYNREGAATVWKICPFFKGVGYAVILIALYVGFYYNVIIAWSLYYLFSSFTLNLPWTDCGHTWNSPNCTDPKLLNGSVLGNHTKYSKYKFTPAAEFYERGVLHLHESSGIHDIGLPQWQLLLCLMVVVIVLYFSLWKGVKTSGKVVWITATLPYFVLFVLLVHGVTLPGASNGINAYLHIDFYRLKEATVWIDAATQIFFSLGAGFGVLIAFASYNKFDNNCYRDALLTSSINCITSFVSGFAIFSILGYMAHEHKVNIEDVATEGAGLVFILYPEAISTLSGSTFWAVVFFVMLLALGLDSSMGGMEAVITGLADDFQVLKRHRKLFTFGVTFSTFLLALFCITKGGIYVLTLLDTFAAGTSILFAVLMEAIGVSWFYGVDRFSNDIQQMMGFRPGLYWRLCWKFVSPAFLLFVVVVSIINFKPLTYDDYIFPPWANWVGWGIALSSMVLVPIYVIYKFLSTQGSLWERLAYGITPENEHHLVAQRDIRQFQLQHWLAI
5-hydroxytryptamine receptor 5A, sequence (P47898 whole entry): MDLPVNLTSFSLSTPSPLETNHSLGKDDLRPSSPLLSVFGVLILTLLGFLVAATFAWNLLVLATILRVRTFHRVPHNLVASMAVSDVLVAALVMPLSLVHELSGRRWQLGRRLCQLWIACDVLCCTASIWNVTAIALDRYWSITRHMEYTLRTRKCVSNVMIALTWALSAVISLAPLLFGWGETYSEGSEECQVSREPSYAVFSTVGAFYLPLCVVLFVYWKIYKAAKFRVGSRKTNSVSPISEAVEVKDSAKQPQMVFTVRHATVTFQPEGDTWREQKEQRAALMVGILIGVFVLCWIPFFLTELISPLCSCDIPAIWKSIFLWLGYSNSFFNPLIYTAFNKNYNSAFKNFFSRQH
Histamine H1 receptor, sequence (P35367 whole entry): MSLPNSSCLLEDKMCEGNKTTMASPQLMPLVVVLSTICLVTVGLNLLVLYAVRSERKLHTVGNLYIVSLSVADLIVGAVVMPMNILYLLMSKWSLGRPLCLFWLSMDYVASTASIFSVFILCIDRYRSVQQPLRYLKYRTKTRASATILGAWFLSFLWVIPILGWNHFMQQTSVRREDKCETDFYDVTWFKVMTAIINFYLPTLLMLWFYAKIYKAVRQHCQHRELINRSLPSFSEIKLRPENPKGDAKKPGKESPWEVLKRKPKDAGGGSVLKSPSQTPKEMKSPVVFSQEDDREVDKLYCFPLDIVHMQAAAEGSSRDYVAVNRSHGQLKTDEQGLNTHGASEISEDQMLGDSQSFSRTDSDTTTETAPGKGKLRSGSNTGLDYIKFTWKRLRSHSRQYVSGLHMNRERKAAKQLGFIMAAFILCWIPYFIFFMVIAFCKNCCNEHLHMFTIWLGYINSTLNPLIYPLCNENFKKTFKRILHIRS
Sodium-dependent dopamine transporter, sequence (Q01959 whole entry): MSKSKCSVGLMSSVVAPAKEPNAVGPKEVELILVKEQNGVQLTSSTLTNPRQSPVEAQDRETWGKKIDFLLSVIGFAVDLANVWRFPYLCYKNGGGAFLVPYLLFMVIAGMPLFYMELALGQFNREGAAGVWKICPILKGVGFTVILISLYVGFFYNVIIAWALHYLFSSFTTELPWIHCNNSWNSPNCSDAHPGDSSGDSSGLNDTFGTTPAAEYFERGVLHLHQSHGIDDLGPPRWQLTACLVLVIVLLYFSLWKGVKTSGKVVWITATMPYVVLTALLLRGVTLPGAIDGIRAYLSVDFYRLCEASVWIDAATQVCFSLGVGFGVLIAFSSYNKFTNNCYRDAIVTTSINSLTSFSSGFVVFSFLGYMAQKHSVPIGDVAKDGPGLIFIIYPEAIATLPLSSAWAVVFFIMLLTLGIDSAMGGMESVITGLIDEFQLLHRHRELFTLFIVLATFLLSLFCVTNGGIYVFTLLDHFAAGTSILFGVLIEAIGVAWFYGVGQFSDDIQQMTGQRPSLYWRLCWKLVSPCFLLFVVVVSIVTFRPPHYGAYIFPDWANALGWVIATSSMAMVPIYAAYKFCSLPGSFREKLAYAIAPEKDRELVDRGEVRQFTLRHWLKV
D(1A) dopamine receptor, sequence (P21728 whole entry): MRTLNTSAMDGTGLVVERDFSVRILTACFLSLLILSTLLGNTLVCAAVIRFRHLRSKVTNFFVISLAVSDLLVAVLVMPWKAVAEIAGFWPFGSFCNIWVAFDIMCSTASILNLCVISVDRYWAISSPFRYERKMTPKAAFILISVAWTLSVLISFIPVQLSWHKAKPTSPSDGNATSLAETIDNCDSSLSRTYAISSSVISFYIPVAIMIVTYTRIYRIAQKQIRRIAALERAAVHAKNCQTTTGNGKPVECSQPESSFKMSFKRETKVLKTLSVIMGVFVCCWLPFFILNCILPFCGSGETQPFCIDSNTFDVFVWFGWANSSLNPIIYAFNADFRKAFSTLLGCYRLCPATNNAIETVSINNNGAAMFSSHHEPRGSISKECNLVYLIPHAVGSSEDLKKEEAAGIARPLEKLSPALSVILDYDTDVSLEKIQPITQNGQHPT

Structure (SMILES) | Ki [1] [µM] | Ki [2] [µM] | Ki [3] [µM] | Ki (D(4) dopamine receptor) [µM] | Ki (Histamine H1 receptor) [µM] | Ki [4] [µM] | Ki (Histamine H2 receptor) [µM] | Ki (D(1A) dopamine receptor) [µM] | Ki [5] [µM] | Ki [6] [µM] | Ki [7] [µM] | Ki [8] [µM] | Ki [9] [µM] | Ki [10] [µM]
CCOc1cc(OC)c(CC(C)N)cc1OC (stereo not given) | > 10 | > 10 | > 10 | > 10 | > 10 | > 10 | > 10 | > 10 | > 10 | > 10 | > 10 | > 10 | > 10 | 3.95
COc1cc(CCN)c(OC)cc1Br | > 10 | > 10 | > 10 | > 10 | > 10 | 0.104 | > 10 | > 10 | > 10 | > 10 | > 10 | > 10 | 0.12 | 0.0276
CCSc1cc(OC)c(CC(N)CC)cc1OC (stereo not given) [1-(4-Ethylsulfanyl-2,5-dimethoxy-benzyl)-propylamine] | > 10 | > 10 | > 10 | > 10 | > 10 | > 10 | > 10 | > 10 | > 10 | > 10 | > 10 | 1.59 | 9.88 | 0.274
CN(C)CCc1c[nH]c2ccccc12 [2-(1H-indol-3-yl)-N,N-dimethylethanamine] | > 10 | > 10 | > 10 | > 10 |  | > 10 | > 10 |  | 3.74 | 0.974 | > 10 | 0.611 | 0.456 | 2.32
CCc1cc(OC)c(CCN)cc1OC [2-(2,5-dimethoxy-4-ethylphenyl)ethylamine] | > 10 | 1.73 | > 10 | > 10 | > 10 | 0.253 | > 10 | > 10 | > 10 | > 10 | > 10 | > 10 | 0.626 | 0.0439
COc1cc(CC(C)N)c(OC)cc1Br (stereo not drawn) [2-(4-Bromo-2,5-dimethoxy-phenyl)-1-methyl-ethylamine((-)-DOB)] | > 10 | > 10 | > 10 | > 10 | 9.12 | 0.941 | > 10 | > 10 | 8.54 | > 10 | > 10 | 5.31 | 1.43 | 
CCSc1cc(OC)c(CC(C)N)cc1OC (stereo not given) [2-(4-Ethylsulfanyl-2,5-dimethoxy-phenyl)-1-methyl-ethylamine] | > 10 | 8.02 | > 10 | > 10 | > 10 | 2.04 | > 10 | > 10 | 1.32 | > 10 | > 10 | > 10 |  | 0.0604
CCSc1cc(OC)c(CCN)cc1OC [2C-T-2] | > 10 | 1.5 | > 10 | > 10 | > 10 | 0.858 | > 10 | > 10 | > 10 | > 10 | > 10 | > 10 | 0.415 | 0.0399
COC(=O)[C@@H]1C[C@H](OC(C)=O)C(=O)[C@H]2[C@@]1(C)CC[C@H]1C(=O)O[C@H](c3ccoc3)C[C@]21C [2S,4aR,6a(R,7R,9S,10aS,10bR)-9-(acetyloxy)-2-(furan-3-yl)dodecahydro-6a,10b-dimethyl-4,10-dioxo-2H-naphtho[2,1-c]pyran-7-carboxylic acid methyl ester] | > 10 | > 10 |  | > 10 | > 10 | > 10 |  | > 10 | > 10 | > 10 | > 10 | > 10 | > 10 | > 10
COc1cc(CCN)cc(OC)c1OC [3,4,5-trimethoxyphenylethylamine] | > 10 | > 10 | > 10 | > 10 | > 10 | > 10 | > 10 | > 10 | > 10 | > 10 | > 10 | > 10 | 5.2 | > 10
COc1ccc2[nH]cc(CCN(C)C)c2c1 [3-(2-DIMETHYLAMINOETHYL)-5-METHOXYINDOLE] | > 10 | > 10 | 2.86 | 3.12 |  |  | > 10 | 0.0795 | 2.03 | > 10 | > 10 |  |  | 
CN(C)CCc1c[nH]c2cccc(O)c12 [4-hydroxy-N,N-dimethyltryptamine] | > 10 |  | > 10 | > 10 | > 10 |  | > 10 |  | 0.852 | > 10 | > 10 |  |  | 
COc1ccc2[nH]cc(CCN(C(C)C)C(C)C)c2c1 [5-meo-dipt] | > 10 | > 10 | > 10 | > 10 | > 10 |  | > 10 | > 10 | 2.53 | > 10 | > 10 | > 10 | > 10 | 
COc1ccc2[nH]cc(CCN(C)C(C)C)c2c1 [5-meo-mipt] | > 10 | > 10 | > 10 | 6.33 | 4.82 | 0.303 | > 10 | > 10 | 6.41 | > 10 | > 10 | 0.953 | 3.5 | 0.448
CN(C)CCc1c[nH]c2cc(F)ccc12 [6-f-dmt] | > 10 | > 10 | > 10 | 1.45 | 0.0466 | 0.218 | 0.925 | 0.547 | 0.145 | > 10 | > 10 | 0.96 | 0.461 | 
